These results are taken from US7696408B2, “Method to enhance Agrobacterium-mediated transformation of plants” (Regents of the University of Minnesota, priority 1999, dated 2010).

“And” between values parts separate entries of the source, which are not always exact repeats. Equal entries are not always repeated. “Also recorded” adds a separate entry of the source. Bounds are passed on as bounds.

For series [1], the system named is soybean cot-node explants. Put plainly: GUS+ sectors, shoots and shoot primordia after 28 days (4 weeks) on shoot induction medium with PPT (stable transformation). Type of series: cell-based, Glycine max. The note with it: for % of explants with GUS+ shoots: Bert. On the procedure: After 5 days, the explants were washed in a liquid shoot induction media (B5 salts, MSIII iron stock, 3% sucrose, 3 mM MES, and filter sterilized B5 vitamins, 1.67 mg/l BAP, 100 mg/l cefotaxime, and 500 mg/l ticarcillin; pH 5.6) to remove excess Agrobacterium. Seven to ten explants from each cysteine level were washed in liquid shoot induction medium and placed in GUS histochemical stain (Jefferson et al., 1987). These explants were scored for GUS transient expression. Five to ten explants from each group were imbedded into a single 25×100 mm petri plate with solid shoot induction media (0.8% agar and agent, e.g., 400 mg/l cysteine) containing PPT concentrations of 1.33 mg/l, 3.33 mg/l, or 5.0 mg/l for selection. The plates were then incubated in a growth chamber with a fluctuating temperature between 18° C.-30° C. under a 18 hours light/6 hours dark cycle at 90-150 μE/m^2s. The explants were removed from the chamber after 14 days and transferred to fresh shoot induction media containing herbicide selection. During the transfer, the hypocotyl was carefully removed from the developing shoot mass and imbedded into the media with the differentiating tissue flush with the media surface. The plates were placed back into the growth chamber for an additional 2 weeks. At the 4 week time point, explants without de novo shoot production were discarded. The cotyledons were then removed from the differentiating tissue by cutting at the base of the node and the callus trimmed before transferring into shoot elongation media containing MS salts (murashige and Skoog, 1962), MSIII iron stock, 3% sucrose, 3 mM MES, 0.8% agar, and filter sterilized B5 vitamins, 50 mg/l asparagine, 100 mg/l pyroglutamic acid, 1 mg/l zeatin riboside, 0.1 mg/l indole-acetic acid, 0.5 mg/l GA3, 100 mg/l cefotaxime, 500 mg/l ticarcillin, 1.3-5 mg/l PPT; pH 5.6). Also at this time, a percentage of the explants were sliced into about 10 sections and stained for both GUS positive sectors and GUS positive shoots. Every 2 weeks the explants were transferred into new shoot elongation media after removing dead plant tissue and the bottom of the explant cut to encourage shoot elongation of transformed shoots. For the 4 week data, the minimum number of transformation events was recorded. Those explants with a GUS positive sector in the differentiating tissue giving rise to shoots were recorded with the number of transformation events in bold and italicized (FIGS. 2-5). Shoot data was obtained by recording the number of fully formed shoots seen on an explant. […] To determine the effect of adding cysteine to the co-cultivation medium on stable transformation, co-cultured explants were cultured for 28 days on a shoot-inducing medium containing the herbicide, phosphinothricin (PPT). During the 28 day incubation, the explants usually form de novo callus and shoots in the cot-node region in a structure referred to as a callus/shoot pad (FIG. 9). The callus/shoot pads were sliced in approximately 5 mm sections, immersed into GUS histochemical stain, and scored for GUS^+ sectors throughout the callus/shoot pad. […] The formation of transgenic shoot primordia and sectors extending into developing shoot tissues were also scored on 28 day sections of explants co-cultivated on 0 and 400 mg/l cysteine (FIG. 10A). Only those GUS^+ shoot primordia with obvious trichomes, which are characteristic to leaf tissue, or GUS^+ sectors originating and extending into the tissue at the base of developing shoots (referred to hereafter as differentiating tissue) were scored (FIG. 1A2).

A further series deals with soybean explants. Description: Enzymatic browning and growth of soybean explants after co-cultivation. Type of series: cell-based, Glycine max. To be noted: for enzymatic browning of soybean explants: cysteine (e.g., 400-1000 mg/l) in solid co-cultivation medium.
[2] abbreviates: cysteine 400-1000 mg/l, eight independent experiments.

For the compound `N[C@@H](CS)C(=O)O` [L-cysteine], the “% of explants with GUS+ shoots” value was 16.6% and 16.7% in series [1] (400 mg/l cysteine and 3.33 mg/l PPT); 33.3% in series [1] (400 mg/l cysteine and 5 mg/l PPT). Moreover, the “average number of GUS+ sectors per explant, each genotype tested” value in series [1] (400 mg/l cysteine vs no cysteine, 28 day) is “significantly greater”. The “frequency of explants with a GUS+ sector in differentiating tissue, relative to no cysteine” value in series [1] (400 mg/l cysteine, 28 days) was 3.5 fold. In series [1] (400 mg/l cysteine, 28 days), the “percent of explants with GUS+ shoot primordia, relative to no cysteine” value was found to be 5 fold. For the same compound, the “average GUS+ foci/explant scored after 4 weeks of shoot initiation” value in series [1] (400 mg/l cysteine, low selection pressure 1.6 to 3.33 mg/l PPT, control 3.3) stood at 15.6 GUS+ foci/explant. Also, the “percent of explants with GUS+ shoot primordia or differentiated sectors, difference from 0 mg/l cysteine” value in series [1] (400 mg/l shoot primordia and differentiated sectors, 1000 mg/l shoot primordia, α=0.05) is “significantly differ”. In addition, the “increase in GUS+ sectors over the control explants” value in series [1] (1000 mg/l cysteine, 28 days) was determined as 3.6 fold. Besides, the “average number of GUS+ sectors per explant compared to no cysteine” value in series [1] (300 to 1000 mg/l cysteine (FIG. 9 also 1500 mg/l), 28 days, P<0.05) is “significantly higher; also recorded: significantly differ”. Besides, the “increase in GUS+ sectors over the no cysteine control” value in series [1] (400 to 1000 mg/l cysteine, 28 days) is recorded as more than 3 fold. Also, the “explants with GUS+ shoot primordia at other cysteine levels” value in series [1] (all other levels of cysteine tested, except 50 mg/l, 28 days) was “at least one explant”. For the same compound, the “GUS+ foci at the 28-day interval” value in series [1] (amended to solid co-cultivation media) was “increase”. The “increase in GUS+ shoot primordia after 28 days” value in series [1] (setting [2]) is reported as 5 fold. Moreover, the “increase in stable T-DNA integration after 28 days” value in series [1] (setting [2]) worked out at 3.6 fold. Further, in series [1] (cysteine added to shoot induction medium for 28 days), the “number of GUS+ sectors on the callus/shoot pad, cysteine in shoot induction medium” value is given as “did not increase”. Also, in series [1] (cysteine in co-cultivation media), the “increase in stable T-DNA transfer in newly developed shoot primordia” value was not below 5 fold. The “callus growth on the hypocotyl” value with soybean explants (co-cultivated in 1000 mg/l cysteine, 28 days) is reported as “little callus growth on the hypocotyl”. The “growth of the hypocotyls of explants” value in the series on soybean explants (co-cultivated in 800 and 1000 mg/l cysteine, experiment #7) is listed as “little to no growth of the hypocotyls”. The entries for the “enzymatic browning of soybean explants” value in the series on soybean explants (listed as Cysteine) and in the series with soybean explants (listed as cysteine) were “decreased” and “less browning”, respectively.
